What all share (assay type): in vivo
Assay [1] deals with Penicillium italicum. The assay can be described thus: Treatment of oranges inoculated with Penicillium italicum, natamycin/ferbam (Example 7). The conditions noted are these: 20° C., 600 ppm ferbam. The protocol: (§1) Ten fresh, organic oranges were used per treatment. Each orange was soaked in a 180 ppm hypochlorite solution for 10 minutes, then rinsed thoroughly with fresh tap water and dried. The peel of each disinfected orange was wounded once using a cork borer according to the method described by de Lapeyre de Bellaire and Dubois (1987). Subsequently, each wound was inoculated with 10 μl of a Penicillium italicum suspension containing 1×10^5 of spores/ml. After incubation for 3 hours at 20° C., each wound and the orange peel area of 1 cm around the wound was treated with in total 150 μl of a freshly prepared aqueous antifungal composition comprising either 500 ppm natamycin (DSM Food Specialties, Delft, The Netherlands), 500 ppm propineb or both. Each antifungal composition also comprised 3.2% (w/w) beeswax, 0.8% (w/w) glycerol, 0.7% (w/w) polyoxyethylene sorbitan monostearate (Tween 60), 0.2% (w/w) polyoxyethylene sorbitan monooleate (Tween 80), 0.05% (w/w) methylhydroxyethyl-cellulose (MHEC), 0.03% (w/w) anti-foaming agent, 0.02% (w/w) xanthan gum, 0.02% (w/w) citric acid, 0.01% (w/w) lactic acid and 0.01% potassium sorbate. A composition without natamycin or propineb was used as control.
(§2) The treated oranges were incubated in a closed box in the dark at 20° C. and assessed on mould growth during a 17-day incubation period. The antifungal activity (in %) of the individual and combined active ingredients was determined by calculating the reduction in mould growth observed on the oranges treated with the antifungal composition in comparison to the mould growth on the oranges treated with the control composition according to the Colby method (Colby, 1967) described in Example 5.
The experiment was conducted as described in Example 6, except for the fact that each wounded and inoculated orange was treated with 150 μl of a freshly prepared aqueous antifungal composition comprising either 500 ppm natamycin (DSM Food Specialties, Delft, The Netherlands), 600 ppm ferbam or both. During the 17-day incubation period, the treated oranges were assessed on mould growth according to the method described in Example 6.

Assay [2] concerns Penicillium italicum. Nature of the assay: Treatment of oranges inoculated with Penicillium italicum, natamycin/propineb (Example 6). As to conditions: 20° C., 500 ppm propineb. As for the experimental part:
as §1, §2

The subject of assay [3] is Botrytis cinerea. Nature of the assay: Treatment of sweet peppers inoculated with Botrytis cinerea (Example 8). The conditions noted are these: 20° C., 200 ppm propineb. The protocol:
Ten fresh, organic sweet peppers were used per treatment. Each sweet pepper was soaked in a 180 ppm hypochlorite solution for 10 minutes, then rinsed thoroughly with fresh tap water and dried. The peel of each disinfected sweet pepper was wounded once using a cork borer according to the method described by de Lapeyre de Bellaire and Dubois (1987). Subsequently, each wound was inoculated with 10 μl of a Botrytis cinerea suspension containing 1×10^5 of spores/ml. After incubation for 3 hours at 20° C., each wound and the skin area of 0.5 cm around the wound was treated with in total 75 μl of a freshly prepared aqueous antifungal composition comprising either 200 ppm natamycin (DSM Food Specialties, Delft, The Netherlands), 200 ppm propineb or both. Each antifungal composition also comprised 3.2% (w/w) beeswax, 0.8% (w/w) glycerol, 0.7% (w/w) polyoxyethylene sorbitan monostearate (Tween 60), 0.2% (w/w) polyoxyethylene sorbitan monooleate (Tween 80), 0.05% (w/w) methylhydroxyethyl-cellulose (MHEC), 0.03% (w/w) anti-foaming agent, 0.02% (w/w) xanthan gum, 0.02% (w/w) citric acid, 0.01% (w/w) lactic acid and 0.01% potassium sorbate. A composition without natamycin or propineb was used as control.
The treated sweet peppers were incubated in a closed box in the dark at 20° C. and assessed on mould growth during a 27-day incubation period. The antifungal activity (in %) of the individual and combined active ingredients was determined by calculating the reduction in mould growth observed on the sweet peppers treated with the antifungal composition in comparison to the mould growth on the sweet peppers treated with the control composition according to the Colby method (Colby, 1967) described in Example 5.

The test system of assay [4] is Botrytis cinerea. The assay can be described thus: Treatment of strawberries inoculated with Botrytis cinerea (Example 5). As to conditions: 500 ppm natamycin, 600 ppm propineb; for Number of moulded strawberries/total number of 12 strawberries / Observed antifungal activity O: 20° C., strawberries. The protocol:
Twelve fresh, organic strawberries were used per treatment. Each strawberry was wounded with a 0.5 mm long cut and each wound was inoculated with 10 μl of a Botrytis cinerea suspension containing 1×10^5 of spores/ml. After a 3-hour incubation period at 20° C., each strawberry was dipped individually for 1 minute in a freshly prepared aqueous antifungal composition comprising either 500 ppm natamycin (DSM Food Specialties, Delft, The Netherlands), 600 ppm propineb or both. Each antifungal composition also comprised 3.2% (w/w) beeswax, 0.8% (w/w) glycerol, 0.7% (w/w) polyoxyethylene sorbitan monostearate (Tween 60), 0.1% (w/w) polyoxyethylene sorbitan monooleate (Tween 80), 0.05% (w/w) methylhydroxyethyl-cellulose (MH EC), 0.03% (w/w) anti-foaming agent, 0.02% (w/w) xanthan gum, 0.02% (w/w) citric acid, 0.01% (w/w) lactic acid and 0.01% potassium sorbate. A composition without natamycin or propineb was used as control. […] The treated strawberries were incubated in a closed box in the dark at 20° C. for 9 days.
During incubation, mould growth on the strawberries was assessed in a twofold manner: (i) the number of moulded strawberries per total of 12 strawberries was counted; and (ii) the antifungal activity (in %) of the individual and combined active ingredients was determined by calculating the reduction in mould growth observed on the strawberries treated with the antifungal composition in comparison to the mould growth on the strawberries treated with the control composition. The expected antifungal activity (E in %) of the combined antifungal composition comprising both active ingredients was calculated according to the Colby equation (Colby, 1967): […]
wherein X and Y are the observed antifungal activities (in %) of the individual active ingredients X and Y, respectively.

[5] abbreviates: incubation day 7, 500 ppm natamycin.
The mark [6] stands for this setting: incubation day 8, 500 ppm natamycin.
Where [7] appears, read: incubation day 9, 500 ppm natamycin.
The mark [8] stands for this setting: incubation day 10, 500 ppm natamycin.
The mark [9] stands for this setting: incubation day 11, 500 ppm natamycin.
The mark [10] stands for this setting: incubation day 12, 500 ppm natamycin.
The mark [11] stands for this setting: incubation day 13, 500 ppm natamycin.
Setting [12] is: incubation day 14, 500 ppm natamycin.
The mark [13] stands for this setting: incubation day 15, 500 ppm natamycin.
[14] abbreviates: incubation day 17, 500 ppm natamycin.
The mark [15] stands for this setting: incubation day 11, 200 ppm natamycin.
The mark [16] stands for this setting: incubation day 12, 200 ppm natamycin.
Where [17] appears, read: incubation day 13, 200 ppm natamycin.
[18] abbreviates: incubation day 15, 200 ppm natamycin.
Setting [19] is: incubation day 18, 200 ppm natamycin.
[20] abbreviates: incubation day 24, 200 ppm natamycin.
Setting [21] is: incubation days 20-22, 200 ppm natamycin.
[22] abbreviates: incubation days 25-27, 200 ppm natamycin.

On to `C[C@@H]1C/C=C/C=C/C=C/C=C/[C@H](O[C@@H]2O[C@H](C)[C@@H](O)[C@H](N)[C@@H]2O)C[C@@H]2O[C@](O)(C[C@@H](O)C[C@H]3O[C@@H]3/C=C/C(=O)O1)C[C@H](O)[C@H]2C(=O)O` [Natamycin, natamycin], for which the “Observed antifungal activity O” value in assay [1] (setting [5]) is on record as 89%; in assay [1] (setting [6]) it was 86%; in assay [1] (setting [7]) it was 64%; in assay [1] (setting [8]) it was 54%; in assay [1] (setting [9]) it was 41%; in assay [1] (setting [10]), 36%. The “Observed antifungal activity O” value in assay [1] (setting [11]) is on record as 38%; in assay [1] (setting [12]), 32%; in assay [1] (setting [13]), 24%; in assay [1] (setting [14]), 21%; in assay [2] (setting [8]), 54%; in assay [2] (setting [9]) it was 41%. In addition, the “Observed antifungal activity O” value came to 36% in assay [2] (setting [10]); 38% in assay [2] (setting [11]); 32% in assay [2] (setting [12]); 24% in assay [2] (setting [13]); 21% in assay [2] (setting [14]); 84% in assay [3] (setting [15]). Also, the “Observed antifungal activity O” value in assay [3] (setting [16]) was 80%; in assay [3] (setting [17]) it was 79%; in assay [3] (setting [18]), 78%; in assay [3] (setting [19]), 75%; in assay [3] (setting [20]), 59%; in assay [3] (setting [21]), 71%. Besides, the “Observed antifungal activity O” value in assay [3] (setting [22]) was 57%; in assay [4] (incubation day 4) it was 33%; in assay [4] (incubation day 5) it was 16%; in assay [4] (incubation day 6), 5.3%; in assay [4] (incubation day 7) it was 11%; in assay [4] (incubation day 8), 14%. Also, in assay [4] (incubation day 9), the “Observed antifungal activity O” value is listed as 4.8%. Further, the “Number of moulded strawberries/total number of 12 strawberries” value is 11/12 in assay [4] (Day 5) and 12/12 in assay [4] (Day 6-9).
Take `CN(C)C(=S)[S-].CN(C)C(=S)[S-].CN(C)C(=S)[S-].[Fe+3]` [Ferbam, ferbam]: the “Observed antifungal activity O” value in assay [1] (setting [5]) came out at 20%; in assay [1] (setting [6]), 24%; in assay [1] (setting [7]) it was 20%; in assay [1] (setting [8]) it was 7%; in assay [1] (setting [9]), 13%; in assay [1] (setting [10]) it was 6%. Besides, the “Observed antifungal activity O” value in assay [1] (setting [11]) was determined as 6%; in assay [1] (setting [12]), 6%; in assay [1] (setting [13]) it was 6%; in assay [1] (setting [14]), 5%.
On to propineb, for which the “Observed antifungal activity O” value in assay [2] (setting [8]), in assay [2] (setting [9]), in assay [2] (setting [10]), in assay [2] (setting [11]), in assay [2] (setting [12]) and in assay [2] (setting [13]) was 0% throughout. Further, the “Observed antifungal activity O” value in assay [2] (setting [14]), in assay [3] (setting [15]), in assay [3] (setting [16]), in assay [3] (setting [17]), in assay [3] (setting [18]) and in assay [3] (setting [19]) was 0% throughout. Further, the “Observed antifungal activity O” value in assay [3] (setting [20]), in assay [3] (setting [21]), in assay [3] (setting [22]), in assay [4] (incubation day 4), in assay [4] (incubation day 5) and in assay [4] (incubation day 6) was 0% in each case. The “Observed antifungal activity O” value in assay [4] (incubation day 7), in assay [4] (incubation day 8) and in assay [4] (incubation day 9) was 0% each time. Besides, the “Number of the 12 strawberries that showed mould growth” value in assay [4] (after 5 through 9 days of incubation) worked out at 12. The “Number of moulded strawberries/total number of 12 strawberries” value in assay [4] (Day 5) and in assay [4] (Day 6-9) was 12/12 throughout.

(Values after patent US20150119349A1, “NEW ANTIFUNGAL COMPOSITIONS” (DSM IP ASSETS B.V., priority 2012, published 2015).)
